Data on 17 compounds can be found in patent publication US20240335431A1, “1-H-PYRROLO[2,3-c]PYRIDINE COMPOUNDS” (Acerta Pharma B.V., priority 2023, published 2024).

Series [1] can be described thus: Human hepatocyte intrinsic clearance assay. The format is in vitro ADME. The settings on record: human hepatocytes. The protocol:
Human hepatocytes (LiverPool™ 10-Donor Human hepatocytes (Mixed Gender, PEG-free, Product No. S01205, 5 million cells per vial) were obtained from BioreclamationIVT. DMSO was sourced from Solarbio S&T Co Ltd. Leibovitz's L-15 Medium, Williams' Medium E, GlutaMAX™-1 (100×), HEPES, DPBS (10×) and Human Recombinant Insulin Solution were purchased from Gibco. Isotonic Percoll Solution was purchased from GE Healthcare. Fetal Bovine Serum (FBS) was purchased from Corning.
10 mM dexamethasone stock solution was prepared by dissolving 3.9 mg dexamethasone in 1 mL of DMSO. An Isotonic Percoll Solution was prepared by dilution of Percoll with DPBS (10×). 15 mL of Isotonic Percoll Solution (90% Percoll/10% DPBS) was added to 31.25 mL William's E medium containing 500 mL of GlutaMAX™-1 (100×), 750 mL of 1M HEPES, 2.5 mL of 5% FBS, 50 mL of 4 mg/mL Human Recombinant Insulin Solution and 5 mL of the 10 mM dexamethasone stock.
2 mL of 10 mM DMSO stock solutions of test compound were added to 198 mL acetonitrile to produce 100 mmol/L concentration.
The human hepatocyte vial was thawed at 37° C. in a waterbath. Once thawed, contents were poured into a 50 mL conical tube and centrifuged at 100 g for 10 minutes. The thawing medium was poured out and 4 mL L-15 medium was added. The tube was gently shaken to resuspend the hepatocytes and cells were counted with an appropriate cell counter. 247.5 mL of the hepatocyte suspension was transferred into each well of the plate and pre-warmed at 600 rpm and 50° C. to enable the temperature to rise to 37° C.
2.5 mL of the […] test compound solution was added to initiate the reaction (final concentration […]) and incubated at 37° C. with shaking at 900 rpm. At 0.5, 5, 15, 30, 45, 60, 80, 100 and 120 minutes, 20 mL was taken into a quenching solution of acetonitrile containing internal standards. The mix was vortexed at 800 rpm for 2 minutes followed by centrifugation for 20 minutes at 4000 rpm at 4° C. 40 mL of supernatant was transferred into a 96 well analysis plate containing 160 mL of water in each well. The analysis plate was shaken at 100 rpm for 2 minutes prior to analysis by LC-MS/MS.
Peak areas were determined from extracted ion chromatograms. Percent parent remaining was calculated from peak area of test compound. The slope value, k, was determined by linear regression of the natural logarithm of percent parent remaining versus incubation time.
The in vitro intrinsic clearance (in vitro CLint in mL/min/10^6 cells) was determined from the slope value using the following equation: […]
where V is the incubation volume (0.25 mL) and N is the number of hepatocytes per well (0.25×10^6 cells).

Series [2] can be described thus: Caco-2 cell monolayers intrinsic permeation assay in the presence of efflux inhibitors. The conditions noted are these: Caco-2, with efflux inhibitors. In kind it is in vitro ADME. From the text: Caco-2 cells were obtained from American Type Culture Collection (ATCC). HEPES, penicillin, streptomycin, bovine serum albumin (BSA) were obtained from Beijing Xinjingke Biotechnology Co, Ltd. Fetal bovine serum, Hank's balanced salt solution (HBSS) and non-essential amino acids (NEAA) were purchased from Gibco. Dulbecco's Modified Eagle's Medium (DMEM) was purchased from Corning and MES from Sigma. HTS Transwell-24 permeable supports were purchased from Corning. Zosuquidar and Ko-143 were obtained from MedChemExpress and Benzbromarone from Sigma.
The Caco-2 cell culture medium consisted of DMEM with high glucose and L-glutamine supplemented with 10% FBS, 0.1 mg/mL streptomycin, 100 units of penicillin, 0.6 mg/mL kanamycin sulfate and 1×NEAA. […] culture medium was added to each Transwell insert with 800 mL added to each well of the reservoir. After incubation at 37° C. in 5% CO2 for 1 hour, the plates were ready for seeding.
The cells were cultivated in T-75 flasks at 37° C., 5% CO2, 95% relative humidity. At 80 to 90% confluence, cells were treated with trypsin/EDTA treatment until they became detached. The trypsin/EDTA was inactivated by adding excess serum containing medium. The cell suspension was centrifuged at 120 g for 10 minutes followed by resuspension of the cell pellet in seeding medium at a cell density of 7.92×10^5 cells/mL.
[…] of the resulting cell suspension was added to each well of the Transwell plate and incubated for 14 to 18 days, with medium replaced every other day. After incubation for 14 to 18 days, the cells should have reached confluence and should be tested for electrical resistance using a Millicel Epithelial Volt-Ohm measuring system (Millipore).
The cell monolayers were washed twice with pre-warmed HBSS and incubated at 37° C. for 30 minutes under gentle shaking (480 rpm).
The compound under test was presented as a 10 mM DMSO stock solution. 2 mL of the 10 mM stock was added to 8 mL DMSO to produce a 2 mM stock. 2 mL was added to 398 mL of HBSS containing 10 mM Zosuquidar, 30 mM Benzbromarone and 2 mM KO-143 to make a […] solution.
210 mL of the test compound solution was added to the apical compartment of the Transwell plate, with a 10 mL sample taken to act as the time 0 sample. The wells of the receiver (basolateral) compartment were filled with 800 mL HBSS (containing the efflux inhibitors). The plates were incubated at 37° C. with shaking at 480 rpm for 120 minutes with sampling at 45 and 120 minutes.
At each sampling time (0, 45 and 120 minutes) 10 mL was removed from the apical compartment and add to 90 mL (HBSS containing the efflux inhibitors). 100 mL was removed from each basolateral compartment. 3 volumes of cold acetonitrile containing internal standard was added to each sample and vortex mixed for 10 minutes at 100 rpm. Samples were then centrifuged at 400 rpm for 20 minutes. 50 mL of the supernatant was taken for LC/MS/MS analysis to determine compound concentration.
The apparent permeability (Papp), in units of centimetre per second, were calculated for Caco-2 drug transport using the following equation: […]
Where CR is the concentration of compound in the receiver side at the respective time point, CD is the concentration of compound in the donor side at the respective timepoint. Area is the surface area of the membrane and time is 4500 seconds (75×60 seconds).
A general note: Caco-2 cells form a polarised layer with tight junctions and transporters.

As a reminder, the Papp A→B is how fast a substance crosses the layer from the apical side.

For `COCCN(C)CCC[C@H](C(C)C)N1CCC(C(=O)c2cn(-c3ccc(F)cc3C(=O)N(C(C)C)C(C)C)c3cnccc23)CC1` (racemic) [Example 23, rac-(R)-5-Fluoro-N,N-diisopropyl-2-(3-(1-(6-((2-methoxyethyl)(methyl)amino)-2-methylhexan-3-yl)piperidine-4-carbonyl)-1H-pyrrolo[2,3-c]pyridin-1-yl)benzamide], in series [1], the “HH CLint” value amounted to 3.8 μl/min/1E6. Moreover, the Papp A→B in series [2] came to 1.5 ×10⁻⁶ cm/s.

As for `CC(C)N(C(=O)c1cc(F)ccc1-n1cc(C(=O)C2CCN(C(=O)[C@H]3NC[C@@H]4CC[C@@H]43)CC2)c2ccncc21)C(C)C` (relative stereo) [Example 25, rel-2-(3-(1-((1R,2R,5S)-3-Azabicyclo[3.2.0]heptane-2-carbonyl)piperidine-4-carbonyl)-1H-pyrrolo[2,3-c]pyridin-1-yl)-5-fluoro-N,N-diisopropylbenzamide], the “HH CLint” value in series [1] is recorded as 3.6 μl/min/1E6. Further, the Papp A→B in series [2] amounted to 3 ×10⁻⁶ cm/s.

On to `Cc1c(C(=O)C2CCN(C(=O)[C@@H]3CCC(C)(C)N3)CC2)c2ccncc2n1-c1ccc(F)cc1C(=O)N(C(C)C)C(C)C` (single isomer, unassigned) [Compound 56-2], for which the “HH CLint” value in series [1] was determined as 3.4 μl/min/1E6.

Turning to `CCN(C(=O)c1cc(F)ccc1-n1c(C)c(C(=O)C2CCN(C(=O)[C@H]3NC[C@@H]4C[C@@H]43)CC2)c2ccncc21)C(C)C` (single isomer, unassigned) [Example 48-1], the “HH CLint” value in series [1] is reported as <1.0 μl/min/1E6.

On to `CCN(C(=O)c1cc(F)ccc1-n1c(C)c(C(=O)C2CCN(C(=O)[C@H]3NC[C@@H]4C[C@@H]43)CC2)c2ccncc21)C(C)C` (single isomer, unassigned) [Example 48-2], for which the “HH CLint” value in series [1] is reported as <1.0 μl/min/1E6.

With `CCN(C(=O)c1cc(F)ccc1-n1c(C)c(C(=O)C2CCN(C(=O)[C@@H]3CCC4(CC4)N3)CC2)c2ccncc21)C(C)C` (single isomer, unassigned) [Example 49-2], the “HH CLint” value in series [1] was 6.0 μl/min/1E6. The Papp A→B in series [2] stood at 6.3 ×10⁻⁶ cm/s.

Consider `CCN(C(=O)c1cc(F)ccc1-n1c(C)c(C(=O)C2CCN(C(=O)[C@@H]3CCC(C)(C)N3)CC2)c2ccncc21)C(C)C` (single isomer, unassigned) [Example 50-2], for which the “HH CLint” value in series [1] is given as <1.0 μl/min/1E6. In addition, in series [2], the Papp A→B is 1.2 ×10⁻⁶ cm/s.

Regarding `Cc1c(C(=O)C2CCN(C(=O)[C@H]3NC[C@@H]4C[C@@H]43)CC2)c2ccncc2n1-c1ccc(F)cc1C(=O)N(CC(F)(F)F)C(C)C` (single isomer, unassigned) [Example 51-2], the “HH CLint” value in series [1] was found to be 1.9 μl/min/1E6.

Take `CCN(C(=O)c1cc(F)ccc1-n1c(C)c(C(=O)[C@@H]2CCN(C(=O)[C@@H]3CCC4(CC4)N3)[C@@H](C)C2)c2ccncc21)C(C)C` (single isomer, unassigned) [Example 52-1, N-Ethyl-5-fluoro-N-isopropyl-2-(2-methyl-3-((2R*,4S*)-2-methyl-1-((S)-4-azaspiro[2.4]heptane-5-carbonyl)piperidine-4-carbonyl)-1H-pyrrolo[2,3-c]pyridin-1-yl)benzamide]: the “HH CLint” value in series [1] is 4.1 μl/min/1E6. Also, the Papp A→B in series [2] was 10.9 ×10⁻⁶ cm/s.

Regarding `CCN(C(=O)c1cc(F)ccc1-n1c(C)c(C(=O)[C@@H]2CCN(C(=O)[C@@H]3CCC4(CC4)N3)[C@@H](C)C2)c2ccncc21)C(C)C` (single isomer, unassigned) [Example 52-2, N-Ethyl-5-fluoro-N-isopropyl-2-(2-methyl-3-((2R*,4S*)-2-methyl-1-((S)-4-azaspiro[2.4]heptane-5-carbonyl)piperidine-4-carbonyl)-1H-pyrrolo[2,3-c]pyridin-1-yl)benzamide], the “HH CLint” value in series [1] is listed as 3.5 μl/min/1E6.

Turning to `Cc1c(C(=O)[C@@H]2CCN(C(=O)[C@H]3NC[C@@H]4C[C@@H]43)[C@@H](C)C2)c2ccncc2n1-c1ccc(F)cc1C(=O)N(CC(F)(F)F)C(C)C` (single isomer, unassigned) [Example 53-3, 2-(3-((2R*,4S*)-1-((1S,2S,5R)-3-Azabicyclo[3.1.0]hexane-2-carbonyl)-2-methylpiperidine-4-carbonyl)-2-methyl-1H-pyrrolo[2,3-c]pyridin-1-yl)-5-fluoro-N-isopropyl-N-(2,2,2-trifluoroethyl)benzamide], the “HH CLint” value in series [1] was found to be 3.3 μl/min/1E6. In addition, the Papp A→B in series [2] worked out at 3.6 ×10⁻⁶ cm/s.

As to `Cc1c(C(=O)C2CCN(C(=O)[C@H]3NC[C@@H]4C[C@@H]43)CC2)c2ccncc2n1-c1ccc(F)cc1C(=O)N(C(C)C)C(C)C` (single isomer, unassigned) [Example 55-1], in series [1], the “HH CLint” value is 4.4 μl/min/1E6. The Papp A→B in series [2] worked out at 3.7 ×10⁻⁶ cm/s.

Take `Cc1c(C(=O)C2CCN(C(=O)[C@H]3NC[C@@H]4C[C@@H]43)CC2)c2ccncc2n1-c1ccc(F)cc1C(=O)N(C(C)C)C(C)C` (single isomer, unassigned) [Example 55-2]: in series [1], the “HH CLint” value stood at 4.2 μl/min/1E6.

With `Cc1c(C(=O)C2CCN(C(=O)[C@@H]3CCC(C)(C)N3)CC2)c2ccncc2n1-c1ccc(F)cc1C(=O)N(C(C)C)C(C)C` (single isomer, unassigned) [Example 56-1], the “HH CLint” value in series [1] was 6.9 μl/min/1E6. Also, the Papp A→B in series [2] is 2.8 ×10⁻⁶ cm/s.

As to `Cc1c(C(=O)C2CCN(C(=O)[C@H]3NC[C@@H]4C[C@@H]43)CC2)c2ccncc2n1-c1ccc(F)cc1C(=O)N(C(C)C)[C@H](C)C(F)(F)F` (single isomer, unassigned) [Example 57-1], the “HH CLint” value in series [1] is 3.2 μl/min/1E6.

`Cc1c(C(=O)C2CCN(C(=O)[C@@H]3CCC4(CC4)N3)CC2)c2ccncc2n1-c1ccc(F)cc1C(=O)N1[C@H](C)COC[C@H]1C` (single isomer, unassigned) [Example 58-2]: in series [1], the “HH CLint” value stood at 1.9 μl/min/1E6. Also, in series [2], the Papp A→B was found to be 5.4 ×10⁻⁶ cm/s.

On to `CC(C)N(C(=O)c1cc(F)ccc1-n1cc(C(=O)[C@H]2CCN(C[C@H]3CC[C@H](NS(C)(=O)=O)CC3)C2)c2ccncc21)C(C)C` [Example 1, 5-Fluoro-N,N-diisopropyl-2-(3-((S)-1-(((1r,4S)-4-(methylsulfonamido)-cyclohexyl)methyl)pyrrolidine-3-carbonyl)-1H-pyrrolo[2,3-c]pyridin-1-yl)benzamide], for which, in series [1], the “HH CLint” value was 2.6 μl/min/1E6. The Papp A→B in series [2] turned out to be 2.7 ×10⁻⁶ cm/s.
